Several values for one entry are separate records, joined by “and”; a condition that tells them apart may be missing. Identical values can stand only once. Entries after “also recorded” stand apart in the source; their conditions may differ.
Experiments:
[1] = system: HIV-1 reverse transcriptase; assay: HIV-1 reverse transcriptase activity in culture supernatant of infected Sup T1 cells; type: cell-based; settings: for Percent Inhibition of HIV-1 Reverse Transcriptase: 300 μM (adenosine and adenine 900 μM), 6 h pre-treatment, 96 h post-infection, average of triplicates
Method: Sup T1 cells were treated with 2-5A or a phosphorothioate/phosphodiester derivative at 300 μM for 6 hours and then infected with HIV-1 at a multiplicity of infection (M.O.I) of approximately 0.1. Adenosine and adenine were tested at 900 μM. At 96 hours post-infection, culture supernatant was removed and HIV-1 RT activity was assayed in triplicate as described by Henderson et al., Virology 182:186-198 (1991). Briefly in this method, 25 μl of culture supernatant was added to a 50 μl cocktail containing 50 mM Tris (pH 8.0), 20 mM dithiothreitol, 10 mM MgCl2, 60 mM NaCl, 0.05 Nonidet p-40, 5 μg/ml oligodeoxythymidylic acid, 10 μg/ml polyriboadenylic acid, 10 μM deoxythymidine triphosphate and 1 mCi [^32 p]thymidine 5'-triphosphate. The mixture was incubated at 37° C. for 2 hours. Fifty microliters of the cocktail were then spotted onto diethylaminoethyl (DEAE) paper, dried, washed with 2× SSC solution (three times for 10 minutes each time) and 95% ethanol (two times for 5 minutes each time), dried and exposed to radiographic film for 18 to 24 hours at -80° C. The filters were cut and final quantitation was determined by scintillation spectrometry.

HIV-1 strain IIIB = assay: Inhibition of HIV-1-induced syncytia formation (infected centers assay); type: cell-based; settings: for inhibition of HIV-1-induced syncytia formation: 3×10^-4 M, PBL infected with HIV-1 IIIB, Sup T1 cells, read at 72 h; for inhibition of syncytia formation (in words): 3×10^-4 M (adenosine 9×10^-4 M)
Source text: FIG. 5A represents the results of an assay performed according to the method of Henderson et al., Virology 182: 186-198 (1991), indicating the inhibition of HIV-1 (IIIB)-induced syncytia formation by adenosine, 2-5A trimer or tetramer core or 2',5'- phosphorothioate/phosphodiester trimer derivatives: ARp *ApA, ASp *ApA, ApARp *A, ApASp *A, ARp *ApApA, ASp *ApApA, ApARp *ApA, ApASp *ApA, ApApARp *A, ApApASp *A.
FIG. 5B is the results of an assay performed according to the method of FIG. 5A with a 2',5'-phosphorothioate/phosphodiester tetramer derivative of 2-5A core.
The infected centers assay as described by Henderson et al., Virology 182: 186-198 (1991), was used to measure the ability of the phosphorothioate/phosphodiester derivatives of 2-5A trimer and tetramer cores to inhibit HIV-1 induced syncytia formation, an indicator of HIV-1 replication in T cells. Freshly isolated peripheral blood lymphocytes (PBL) were treated with 2-5A or derivatives for 2 h and infected with HIV-1 strain IIIB at a m.o.i. of approximately 0.1. The infected PEL were maintained in RPMI-1640 medium supplemented with 10% (v/v) heat-inactivated fetal calf serum at 37° C. in a humidified 5% CO2 in air atmosphere. After 48 h, the cells were washed twice in Hank's balaned salt solution, serially diluted and seeded into multiple wells of a 96-well microtiter plate. Immediately, 2×10^5 exponentially growing Sup T1 cells were added to each well; Sup T1 cells readily form a syncytium with a cell which is productively infected with HIV-1. The wells were examined daily for the presence of syncytia, using a tissue culture microscope. The first signs of syncytia formation can be seen in 12 h, with some complete syncytia developing by 24 h. Final results were read at 72 h. Each syncytium was counted as a single infected cell. The number of syncytia per seeded cell is determined and expressed as an infected center per infected cell. In the control (no 2-5A derivative added), 100% syncytia formation was equivalent to 12±3 syncytia per 200 HIV-1 infected cells.

serum phosphodiesterases = assay: Stability of 2-5A core derivatives to serum phosphodiesterase; type: in vitro ADME, fetal calf; settings: for Hydrolysis Products / % Hydrolysis: 300 μM, 37° C.; for Hydrolysis Products: 10% fetal calf serum, 6 h, identified by HPLC; for % Hydrolysis: RPMI-1640 + 10% fetal calf serum, 6 h (A2, A3: 20 min); for hydrolysis (in words): serum-containing medium
Method: The stability of authentic 2-5A and phosphorothioate/phosphodiester trimer and tetramer core derivatives (300 μM) was determined by incubation in 200 μL of RPMI-1640 medium supplemented with 10% fetal calf serum in 5% CO2 -in-air at 37° C. Aliquots (30 μL) were removed at time zero and 6 hours. The hydrolysis products were identified by HPLC as described in Kariko et al. , Biochemistry 26: 7127-7135 (1987).
No hydrolysis of the phosphorothioate/phosphodiester trimer core derivatives was observed. However, the phosphorothioate/phosphodiester tetramer core derivatives were hydrolyzed from the 5'- or 2',3'-terminus, depending on the location of the phosphorothioate-substituted internucleotide linkage.

RNase L = assay: rRNA cleavage assay in L929 cell extracts (activation of RNase L); type: biochemical; settings: 1 h at 30° C., > = no activation up to this concentration
Method: FIG. 2A represents the results of a ribosomal RNA cleavage assay with 2',5'-phosphorothioate/phosphodiester trimer core 2-5A derivatives. The procedure was performed according to the method of Kariko et al., Biochemistry 26: 7127-7135 (1987). 2-5A oligomer (phosphodiester internucleotide linkage) is also included for comparison. L929 cell extracts were incubated in the absence (lane 1) or presence of p3 A3 at 10^-8 M (lane 2), ARp *ApA at 10^-6 M (lane 3), ASp *ApA at 10^-6 M (lane 4), ApARp *A at 10^-6 M (lane 5), ApASp *A at 10^-6 M (lane 6) or A3 at 10^-6 M (lane 7). The positions of 28S and 18S rRNA are shown; the arrows indicate the positions of the well-characterized specific cleavage products (SCP) of RNase L.
FIG. 2B represents the results of a ribosomal RNA cleavage assay performed according to the method of FIG. 2A with 2',5'-phosphorothioate/phosphodiester trimer 5'-monophosphate derivatives. L929 cell extracts were incubated in the absence (lane 1) or presence of p3 A3 at 2×10^-9 M (lane 2), pA3 at 10^-6 M (lane 3), pARp *ApA at 10^-7 M (lane 4), pASp *ApA at 10^-7 M (lane 5), pApARp *A at 2×10^-9 M (Lane 6), pApASp *A at 10^-7 M (lane 7).
FIG. 3A represents the results of a ribosomal RNA cleavage assay performed according to the method of FIG. 2A with 2',5'-phosphorothioate/phosphodiester tetramer core 2-5A derivatives. 2-5A oligomer (phosphodiester internucleotide linkage) is also included for comparison. L929 cell extracts were incubated in the absence (lane 1) or presence of p3 A4 at 10^-8 M (lane 2), A4 at 10^-5 M (lane 3), ARp *ApApA at 10^-5 M (lane 4), ASp *ApApA at 10^-5 M (lane 5), ApARp *ApA at 10^-5 M (lane 6), ApASp *ApA at 10^-5 M (lane 7), ApApARp *A at 10^-5 M (lane 8) or ApApASp *A at 10^-5 M (lane 9).
FIG. 3B represents the results of a ribosomal RNA cleavage assay performed according to the method of FIG. 2A with 2',5'-phosphorothioate/phosphodiester tetramer 5'-monophosphate derivatives. L929 cell extracts were incubated in the absence (lane 1) or presence of p3 A4 at 10^-8 M (lane 2), pA4 at 10^-6 M (lane 3), pARp *ApApA at 10^-6 M (lane 4), pASp *ApApA at 10^-6 M (lane 5), pApARp *ApA at 10^-8 M (lane 6), pApASp *ApA at 10^-5 M (lane 7), pApApARp *A at 10^-7 M (lane 8) or pApApASp *A at 10^-7 M (lane 9).
Activation of RNase L by the phosphorothioate/phosphodiester trimer and tetramer 2-5A derivatives was also measured in a rRNA cleavage assay using L929 cell extracts according to the method of Kariko et al. (1987), supra, in which extracts of L929 cells were incubated for 1 h at 30° C. in the presence or absence of 2-5A or 2-5A derivative. […] Authentic p3 A3 was active at 1×10^-8 M (FIG. 2A, lane 2). The corresponding 5'-monophosphates, pARp *ApA, pASp *ApA and pApARp *A, activated at 1×10^-7 M, 1×10^-7 M, and 2×10^-9 M, respectively (FIG. 2B, lanes 4-6), as compared with pA3 which was active at 1×10^-6 M (lane 3).

Molecule	Percent Inhibition of HIV-1 Reverse Transcriptase [1] [%]	inhibition of HIV-1-induced syncytia formation (HIV-1 strain IIIB) [%]	Hydrolysis Products (serum phosphodiesterases)	% Hydrolysis (serum phosphodiesterases)	hydrolysis (in words) (serum phosphodiesterases)	inhibition of syncytia formation (in words) (HIV-1 strain IIIB)	concentration at which RNase L is activated to cleave rRNA to SCP (RNase L) [nM]	inhibition of HIV-1 RT activity (in words) [1]	inhibition of syncytia formation (in words) (HIV-1 strain IIIB; listed as Adenosine)
(PR)-P-thioadenylyl-(2',5')-adenylyl-(2',5')-adenylyl-(2',5')-adenosine [ARp *ApApA]	57	16	inosine, hypoxanthine; also recorded: ARp *A	50% and 100%	rapidly hydrolyzed from the 2',3'-terminus				
Adenylyl-(2',5')-(PS)-P-thioadenylyl-(2',5')-adenosine [ApASp *A]	78	78	not hydrolyzed	0%		most efficient inhibitors of HIV-1 induced syncytia formation	> 1000		
(PR)-P-thioadenylyl-(2',5')-adenylyl-(2',5')-adenosine [ARp *ApA]	32	10	not hydrolyzed	0%			> 1000		
Nc1ncnc2c1ncn2[C@@H]1O[C@H](CO[P@@](O)(=S)O[C@@H]2[C@H](O)[C@@H](COP(=O)(O)O[C@@H]3[C@H](O)[C@@H](COP(=O)(O)O[C@@H]4[C@H](O)[C@@H](CO)O[C@H]4n4cnc5c(N)ncnc54)O[C@H]3n3cnc4c(N)ncnc43)O[C@H]2n2cnc3c(N)ncnc32)[C@@H](O)[C@H]1O [ApApARp *A, Adenylyl-(2'-5')-adenylyl-(2'-5')-(PR)-P-thioadenylyl-(2'-5')-adenosine]	38	90	inosine, hypoxanthine; also recorded: ApARp *A	30%	degraded from the 5'-terminus; also recorded: hydrolyzed from the 5'-terminus	most efficient inhibitors	10000		
Nc1ncnc2c1ncn2[C@@H]1O[C@H](CO)[C@@H](O)[C@H]1O [adenosine, reference compound]	0					did not inhibit syncytia formation		did not inhibit HIV-1 RT activity	not able to inhibit syncytia formation
Adenylyl-(2',5')-(PR)-P-thioadenylyl-(2',5')-adenosine [ApARp *A]	31	100	not hydrolyzed	0%		most efficient inhibitors of HIV-1 induced syncytia formation	1000		
(PS)-P-thioadenylyl-(2',5')-adenylyl-(2',5')-adenylyl-(2',5')-adenosine [ASp *ApApA]	54	18	inosine, hypoxanthine; also recorded: ASp *A	50% and 100%	rapidly hydrolyzed from the 2',3'-terminus				
Adenylyl-(2',5')-(PS)-P-thioadenylyl-(2',5')-adenylyl-(2',5')-adenosine [ApASp *ApA]	42	32	inosine, hypoxanthine; also recorded: ASp *ApA	50%					
Adenylyl-(2',5')-adenylyl-(2',5')-(PS)-P-thioadenylyl-(2',5')-adenosine [ApApASp *A]	62	76	inosine, hypoxanthine; also recorded: ApASp *A	33%	degraded from the 5'-terminus; also recorded: hydrolyzed from the 5'-terminus	most efficient inhibitors			
Nc1ncnc2nc[nH]c12 [adenine, reference compound]	4					not able to inhibit syncytia formation		did not inhibit HIV-1 RT activity	

Reference: patent US5863905A, “2',5'-phosphorothioate/phosphodiester oligoadenylates and anti-viral uses thereof” (Temple University-Of The Commonwealth System of Higher …, priority 1997, dated 1999)
